Reference: US20110086889A1, “TETRAZOLE COMPOUNDS AS OREXIN RECEPTOR ANTAGONISTS” (priority 2009, published 2011)

Experiments:
[1] = rat model; cited from earlier work
[2] = rat; cited from earlier work
[3] = cited from earlier work
human orexin-1 receptor = molecular target: T1, human orexin-1 receptor (Homo sapiens, UniProt O43613); assay: FLIPR calcium assay, orexin receptor antagonistic activity, CHO cells expressing the human orexin-1 receptor; assay type: cell-based; conditions: 3 nM orexin-A as agonist, some values geometric mean of n = 2 or 3, read-out: OX1 IC50
T1 construct: expressed in transfected cells; host or cells: Chinese hamster ovary (CHO) cells, grown under G418 selection
T1 sequence (O43613 1-425): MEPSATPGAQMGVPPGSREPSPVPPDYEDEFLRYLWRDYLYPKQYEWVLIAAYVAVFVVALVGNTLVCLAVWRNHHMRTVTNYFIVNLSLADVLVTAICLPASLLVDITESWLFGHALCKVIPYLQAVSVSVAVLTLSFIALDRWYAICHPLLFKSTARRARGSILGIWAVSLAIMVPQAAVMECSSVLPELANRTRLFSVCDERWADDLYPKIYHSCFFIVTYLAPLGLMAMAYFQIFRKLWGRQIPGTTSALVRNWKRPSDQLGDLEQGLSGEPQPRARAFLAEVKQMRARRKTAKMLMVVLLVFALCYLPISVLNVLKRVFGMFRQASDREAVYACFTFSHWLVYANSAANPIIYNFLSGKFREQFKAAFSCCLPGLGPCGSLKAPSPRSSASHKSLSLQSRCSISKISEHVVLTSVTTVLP
Description: (§1) The orexin receptor antagonistic activity of the compounds of formula (I) is determined in accordance with the following experimental method.
(§2) Chinese hamster ovary (CHO) cells expressing the human orexin-1 receptor and the human orexin-2 receptor, respectively, are grown in culture medium (Ham F-12 with L-Glutamine) containing 300 μg/ml G418, 100 U/ml penicillin, 100 μg/ml streptomycin and 10% heat inactivated fetal calf serum (FCS). The cells are seeded at 20,000 cells/well into 384-well black clear bottom sterile plates (Greiner). The seeded plates are incubated overnight at 37° C. in 5% CO2. Human orexin-A as an agonist is prepared as 1 mM stock solution in MeOH:water (1:1), diluted in HBSS containing 0.1% bovine serum albumin (BSA), NaHCO3: 0.375 g/l and 20 mM HEPES for use in the assay at a final concentration of 3 nM.
(§3) Antagonists are prepared as 10 mM stock solution in DMSO, then diluted in 384-well plates using DMSO followed by a transfer of the dilutions into in HBSS containing 0.1% bovine serum albumin (BSA), NaHCO3: 0.375 g/l and 20 mM HEPES. On the day of the assay, 50 μl of staining buffer (HBSS containing 1% FCS, 20 mM HEPES, NaHCO3: 0.375 g/l, 5 mM probenecid (Sigma) and 3 μM of the fluorescent calcium indicator fluo-4 AM (1 mM stock solution in DMSO, containing 10% pluronic) is added to each well. The 384-well cell-plates are incubated for 50 min at 37° C. in 5% CO2 followed by equilibration at r.t. for 30-120 min before measurement.
(§4) Within the Fluorescent Imaging Plate Reader (FLIPR Tetra, Molecular Devices), antagonists are added to the plate in a volume of 10 μl/well, incubated for 10 min and finally 10 μl/well of agonist is added. Fluorescence is measured for each well at 1 second intervals, and the height of each fluorescence peak is compared to the height of the fluorescence peak induced by 3 nM orexin-A with vehicle in place of antagonist. For each antagonist, the IC50 value (the concentration of compound needed to inhibit 50% of the agonistic response) is determined and may be normalized using the obtained IC50 value of a on-plate reference compound. Optimized conditions were achieved by adjustment of pipetting speed and cell splitting regime. The calculated IC50 values of the compounds may fluctuate depending on the daily cellular assay performance. Fluctuations of this kind are known to those skilled in the art.

human orexin-2 receptor = molecular target: T2, human orexin-2 receptor (Homo sapiens, UniProt O43614); assay: FLIPR calcium assay, orexin receptor antagonistic activity, CHO cells expressing the human orexin-2 receptor; assay type: cell-based; conditions: 3 nM orexin-A as agonist, some values geometric mean of n = 2 or 3, read-out: OX2 IC50
T2 construct: expressed in transfected cells; host or cells: Chinese hamster ovary (CHO) cells, grown under G418 selection
T2 sequence (O43614 1-444): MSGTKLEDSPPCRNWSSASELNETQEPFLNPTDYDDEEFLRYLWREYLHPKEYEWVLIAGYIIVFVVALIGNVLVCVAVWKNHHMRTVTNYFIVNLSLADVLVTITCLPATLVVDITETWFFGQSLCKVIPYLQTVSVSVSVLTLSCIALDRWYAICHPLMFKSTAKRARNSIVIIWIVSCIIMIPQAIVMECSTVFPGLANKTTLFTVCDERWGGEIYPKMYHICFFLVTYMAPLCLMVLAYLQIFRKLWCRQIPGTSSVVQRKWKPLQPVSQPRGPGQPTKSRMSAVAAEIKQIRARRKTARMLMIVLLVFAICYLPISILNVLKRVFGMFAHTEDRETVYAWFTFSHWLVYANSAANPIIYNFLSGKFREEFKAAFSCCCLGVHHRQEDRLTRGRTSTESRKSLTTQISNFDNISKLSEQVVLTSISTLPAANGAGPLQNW
Description: as §1, §2, §3, §4

| Structure (SMILES) | IC50 (human orexin-1 receptor) | IC50 (human orexin-2 receptor) | memory function [1] | alertness, characterized by active wake and locomotion [2] | time spent in both REM and NREM sleep [2] | activity in a rat model of post-traumatic stress disorder [3] |
| --- | --- | --- | --- | --- | --- | --- |
| CNC(=O)[C@@H](c1ccccc1)N1CCc2cc(OC)c(OC)cc2[C@@H]1CCc1ccc(C(F)(F)F)cc1 [(2R)-2-{(1S)-6,7-dimethoxy-1-[2-(4-trifluoromethyl-phenyl)-ethyl]-3,4-dihydro-1H-isoquinolin-2-yl}-N-methyl-2-phenyl-acetamide] |  |  | enhance memory function | decrease alertness | dose-dependently increase | active |
| COc1ccc(-n2nnnc2SCC(=O)Nc2ccnn2Cc2ccc3c(c2)OCO3)c(OC)c1 [Example 62, N-(2-Benzo[1,3]dioxol-5-ylmethyl-2H-pyrazol-3-yl)-2-[1-(2,4-dimethoxy-phenyl)-1H-tetrazol-5-ylsulfanyl]-acetamide] | 3440 nM | 1800 nM |  |  |  |  |
| Cc1cccc(-n2nnnc2SCC(=O)Nc2ccnn2CC2CC2)c1C [Example 76, N-(2-Cyclopropylmethyl-2H-pyrazol-3-yl)-2-[1-(2,3-dimethyl-phenyl)-1H-tetrazol-5-ylsulfanyl]-acetamide] | 363 nM | 165 nM |  |  |  |  |
| CCC(C)Cn1nccc1NC(=O)CSc1nnnn1-c1cccc(C)c1C (stereo not drawn) [Example 77, 2-[1-(2,3-Dimethyl-phenyl)-1H-tetrazol-5-ylsulfanyl]-N-[2-(2-methyl-butyl)-2H-pyrazol-3-yl]-acetamide] | 295 nM | 613 nM |  |  |  |  |
| Cc1cccc(-n2nnnc2SCC(=O)Nc2ccnn2CCCc2ccc(OC(F)(F)F)c(F)c2)c1C [Example 85, 2-[1-(2,3-Dimethyl-phenyl)-1H-tetrazol-5-ylsulfanyl]-N-{2-[3-(3-fluoro-4-trifluoromethoxy-phenyl)-propyl]-2H-pyrazol-3-yl}-acetamide] | 1810 nM | 146 nM |  |  |  |  |
| COc1ccc(-n2nccc2NC(=O)CCc2nnnn2-c2c(C)cc(C)cc2C)cc1 [Example 139, N-[2-(4-Methoxy-phenyl)-2H-pyrazol-3-yl]-3-[1-(2,4,6-trimethyl-phenyl)-1H-tetrazol-5-yl]-propionamide] | 796 nM | 530 nM |  |  |  |  |
| Cc1cc(NC(=O)CSc2nnnn2-c2cccc(C)c2C)n(-c2ccccc2)n1 [Example 154, 2-[1-(2,3-Dimethyl-phenyl)-1H-tetrazol-5-ylsulfanyl]-N-(5-methyl-2-phenyl-2H-pyrazol-3-yl)-acetamide] | 7250 nM | 654 nM |  |  |  |  |

Further lines, with some results ahead:

| IC50 (human orexin-1 receptor) | IC50 (human orexin-2 receptor) | Structure (SMILES) | memory function [1] | alertness, characterized by active wake and locomotion [2] | time spent in both REM and NREM sleep [2] | activity in a rat model of post-traumatic stress disorder [3] |
| --- | --- | --- | --- | --- | --- | --- |
| 32 nM | 5 nM | COc1ccc(Cn2nccc2NC(=O)CSc2nnnn2-c2cccc(C)c2C)cc1 [Example 1, 2-[1-(2,3-Dimethyl-phenyl)-1H-tetrazol-5-ylsulfanyl]-N-[2-(4-methoxy-benzyl)-2H-pyrazol-3-yl]-acetamide] |  |  |  |  |
| 42 nM | 25 nM | COc1ccc(Cn2nccc2NC(=O)CSc2nnnn2-c2cccc(C)c2C)cc1C [Example 2, 2-[1-(2,3-Dimethyl-phenyl)-1H-tetrazol-5-ylsulfanyl]-N-[2-(4-methoxy-3-methyl-benzyl)-2H-pyrazol-3-yl]-acetamide] |  |  |  |  |
| 61 nM | 89 nM | COc1ccc(Cn2nccc2NC(=O)CSc2nnnn2-c2cccc(C)c2C)cc1OC [Example 10, N-[2-(3,4-Dimethoxy-benzyl)-2H-pyrazol-3-yl]-2-[1-(2,3-dimethyl-phenyl)-1H-tetrazol-5-ylsulfanyl]-acetamide] |  |  |  |  |
| 48 nM | 115 nM | Cc1ccccc1Cn1nccc1NC(=O)CSc1nnnn1-c1cccc(C)c1C [Example 22, 2-[1-(2,3-Dimethyl-phenyl)-1H-tetrazol-5-ylsulfanyl]-N-[2-(2-methyl-benzyl)-2H-pyrazol-3-yl]-acetamide] |  |  |  |  |
| 11 nM | 6 nM | COc1ccc(Cn2nccc2NC(=O)CSc2nnnn2-c2cc(C)ccc2C)cc1 [Example 46, 2-[1-(2,5-Dimethyl-phenyl)-1H-tetrazol-5-ylsulfanyl]-N-[2-(4-methoxy-benzyl)-2H-pyrazol-3-yl]-acetamide] |  |  |  |  |
| 44 nM | 47 nM | Cc1ccc(C)c(-n2nnnc2SCC(=O)Nc2ccnn2CCc2ccccc2)c1 [Example 89, 2-[1-(2,5-Dimethyl-phenyl)-1H-tetrazol-5-ylsulfanyl]-N-(2-phenethyl-2H-pyrazol-3-yl)-acetamide] |  |  |  |  |
| 25 nM | 41 nM | COc1ccc(Cn2nccc2NC(=O)CCc2nnnn2-c2cccc3ccccc23)cc1 [Example 115, N-[2-(4-Methoxy-benzyl)-2H-pyrazol-3-yl]-3-(1-naphthalen-1-yl-1H-tetrazol-5-yl)-propionamide] |  |  |  |  |
| 85 nM | 19 nM | Cc1cccc(-n2nnnc2SCC(=O)Nc2ccnn2-c2ccc(Oc3ccccc3)cc2)c1C [Example 141, 2-[1-(2,3-Dimethyl-phenyl)-1H-tetrazol-5-ylsulfanyl]-N-[2-(4-phenoxy-phenyl)-2H-pyrazol-3-yl]-acetamide] |  |  |  |  |
| 47 nM | 8300 nM | COc1ccc(-n2nccc2NC(=O)CSc2nnnn2-c2cccc(C)c2C)cn1 [Example 147, 2-[1-(2,3-Dimethyl-phenyl)-1H-tetrazol-5-ylsulfanyl]-N-[2-(6-methoxy-pyridin-3-yl)-2H-pyrazol-3-yl]-acetamide] |  |  |  |  |
| 63 nM | 32 nM | COc1ccc(-n2nccc2NC(=O)CSc2nnnn2-c2c(Cl)cccc2Cl)cc1 [Example 152, 2-[1-(2,6-Dichloro-phenyl)-1H-tetrazol-5-ylsulfanyl]-N-[2-(4-methoxy-phenyl)-2H-pyrazol-3-yl]-acetamide] |  |  |  |  |
